From patent publication US20230398130A1, “METHODS AND COMPOSITIONS FOR DIFFERENTIATING STEM CELLS” (Massachusetts Institute of Technology, priority 2020, published 2023)

How the values were obtained:
ISC-enriched organoids [1] = assay: Primary screen, 384-well 2.5-D organoid differentiation (ENR+CD, 6 days): basal lysozyme secretion (LYZ.NS); type: cell-based, murine; conditions: for Dose.FC.LYZ.NS: FC vs plate median; for SSMD.LYZ.NS: strictly standardized mean difference
From the text: (§1) High-throughput screening.

ISC-enriched organoids [2] = assay: Primary screen, 384-well 2.5-D organoid differentiation (ENR+CD, 6 days, Target Selective Inhibitor Library, vs whole-plate median): ATP (CellTiter-Glo 3D, CTG); conditions: for Dose.FC.CTG: FC vs plate median; for SSMD.CTG: strictly standardized mean difference
ISC-enriched organoids [3] = assay: Primary screen, 384-well 2.5-D organoid differentiation (ENR+CD, 6 days): carbachol-induced lysozyme secretion (LYZ.S); type: cell-based, murine; conditions: primary screen; for Dose.FC.LYZ.S: FC vs plate median; for Z.LYZ.S: standard z score; for SSMD.LYZ.S: strictly standardized mean difference
From the text: as §1

[4] = primary screen, dose 0.08 uM, ENR+CD 6 days
[5] = primary screen, dose 0.08 uM, standard z score of FC
[6] = primary screen, dose 0.40 uM, ENR+CD 6 days
[7] = primary screen, dose 0.40 uM, standard z score of FC
[8] = primary screen, dose 2.00 uM, ENR+CD 6 days
[9] = primary screen, dose 2.00 uM, standard z score of FC
[10] = primary screen, dose 10.00 uM, ENR+CD 6 days
[11] = primary screen, dose 10.00 uM, standard z score of FC
[12] = primary screen, 1st of the 4 dose lines of the treatment (dose not given)
[13] = primary screen, 2nd of the 4 dose lines of the treatment (dose not given)
[14] = primary screen, 3rd of the 4 dose lines of the treatment (dose not given)
[15] = primary screen, 4th of the 4 dose lines of the treatment (dose not given)
[16] = Dose 0.08 uM, primary screen, standard z score
[17] = Dose 0.40 uM, primary screen, standard z score
[18] = Dose 2.00 uM, primary screen, standard z score
[19] = Dose 10.00 uM, standard z score of FC
[20] = 1st of the 4 dose lines of the treatment (dose not given)
[21] = 2nd of the 4 dose lines of the treatment (dose not given)
[22] = 3rd of the 4 dose lines of the treatment (dose not given)
[23] = 4th of the 4 dose lines of the treatment (dose not given)
[24] = Dose 0.08 uM, standard z score of FC
[25] = Dose 0.40 uM, standard z score of FC
[26] = Dose 2.00 uM, standard z score of FC
[27] = Dose 10.00 uM, primary screen, standard z score

O=C(c1ccc(F)cc1)N1CCC[C@H](c2nc(-c3ccc(F)cc3)no2)C1 [ADX-47273]
Dose.FC.LYZ.NS (ISC-enriched organoids [1]; [4]): 0.269 log 2 fold change
Z.LYZ.NS (ISC-enriched organoids [1]; [5]): 2.346
Dose.FC.LYZ.NS (ISC-enriched organoids [1]; [6]): 0.053 log 2 fold change
Z.LYZ.NS (ISC-enriched organoids [1]; [7]): 0.457
Dose.FC.LYZ.NS (ISC-enriched organoids [1]; [8]): −0.033 log 2 fold change
Z.LYZ.NS (ISC-enriched organoids [1]; [9]): −0.286
Dose.FC.LYZ.NS (ISC-enriched organoids [1]; [10]): −0.036 log 2 fold change
Z.LYZ.NS (ISC-enriched organoids [1]; [11]): −0.311
Dose.FC.CTG (ISC-enriched organoids [2]; [4]): 0.115 log 2 fold change
Z.CTG (ISC-enriched organoids [2]; [5]): 0.274
Dose.FC.CTG (ISC-enriched organoids [2]; [6]): −0.034 log 2 fold change
Z.CTG (ISC-enriched organoids [2]; [7]): −0.082
Dose.FC.CTG (ISC-enriched organoids [2]; [8]): −0.210 log 2 fold change
Z.CTG (ISC-enriched organoids [2]; [9]): −0.501
Dose.FC.CTG (ISC-enriched organoids [2]; [10]): −0.039 log 2 fold change
Z.CTG (ISC-enriched organoids [2]; [11]): −0.094
Dose.FC.LYZ.S (ISC-enriched organoids [3]; dose 0.08 uM, ENR+CD 6 days): 0.147 log 2 fold change
Dose.FC.LYZ.S (ISC-enriched organoids [3]; dose 0.40 uM, ENR+CD 6 days): 0.147 log 2 fold change
Dose.FC.LYZ.S (ISC-enriched organoids [3]; dose 2.00 uM, ENR+CD 6 days): −0.039 log 2 fold change
Dose.FC.LYZ.S (ISC-enriched organoids [3]; dose 10.00 uM, ENR+CD 6 days): −0.070 log 2 fold change

CN(Cc1cnc2nc(N)nc(N)c2n1)c1ccc(C(=O)N[C@@H](CCC(=O)O)C(=O)O)cc1 [Methotrexate]
SSMD.LYZ.NS (ISC-enriched organoids [1]; [12]): −0.745
SSMD.LYZ.NS (ISC-enriched organoids [1]; [13]): −0.349
SSMD.LYZ.NS (ISC-enriched organoids [1]; [14]): −1.130
SSMD.LYZ.NS (ISC-enriched organoids [1]; [15]): −0.527
Z.CTG (ISC-enriched organoids [2]; [16]): −1.469
Z.CTG (ISC-enriched organoids [2]; [17]): −1.724
Z.CTG (ISC-enriched organoids [2]; [18]): −1.674
Z.CTG (ISC-enriched organoids [2]; [19]): −1.534
SSMD.CTG (ISC-enriched organoids [2]; [12]): −1.489
SSMD.CTG (ISC-enriched organoids [2]; [13]): −1.028
SSMD.CTG (ISC-enriched organoids [2]; [14]): −1.982
SSMD.CTG (ISC-enriched organoids [2]; [15]): −1.176
Z.LYZ.S (ISC-enriched organoids [3]; [20]): −1.029
Z.LYZ.S (ISC-enriched organoids [3]; [21]): −0.831
Z.LYZ.S (ISC-enriched organoids [3]; [22]): −1.143
Z.LYZ.S (ISC-enriched organoids [3]; [23]): −1.007
SSMD.LYZ.S (ISC-enriched organoids [3]; [20]): −0.943
SSMD.LYZ.S (ISC-enriched organoids [3]; [21]): −0.627
SSMD.LYZ.S (ISC-enriched organoids [3]; [22]): −0.866
SSMD.LYZ.S (ISC-enriched organoids [3]; [23]): −0.718

Cc1cnc(-c2cc(N3CCN(C(=O)CCS(C)(=O)=O)CC3)ncc2Cl)c(C)c1 [PF-5274857]
Dose.FC.LYZ.NS (ISC-enriched organoids [1]; Dose 0.08 uM, primary screen): 0.078 log 2 fold change
Z.LYZ.NS (ISC-enriched organoids [1]; [24]): 0.683
Dose.FC.LYZ.NS (ISC-enriched organoids [1]; Dose 0.40 uM, primary screen): −0.029 log 2 fold change
Z.LYZ.NS (ISC-enriched organoids [1]; [25]): −0.256
Dose.FC.LYZ.NS (ISC-enriched organoids [1]; Dose 2.00 uM, primary screen): 0.011 log 2 fold change
Z.LYZ.NS (ISC-enriched organoids [1]; [26]): 0.094
Dose.FC.LYZ.NS (ISC-enriched organoids [1]; Dose 10.00 uM, primary screen): 0.074 log 2 fold change
Z.LYZ.NS (ISC-enriched organoids [1]; [19]): 0.642
Dose.FC.CTG (ISC-enriched organoids [2]; Dose 0.08 uM, primary screen): −0.101 log 2 fold change
Z.CTG (ISC-enriched organoids [2]; [24]): −0.242
Dose.FC.CTG (ISC-enriched organoids [2]; Dose 0.40 uM, primary screen): −0.040 log 2 fold change
Z.CTG (ISC-enriched organoids [2]; [25]): −0.096
Dose.FC.CTG (ISC-enriched organoids [2]; Dose 2.00 uM, primary screen): 0.055 log 2 fold change
Z.CTG (ISC-enriched organoids [2]; [26]): 0.131
Dose.FC.CTG (ISC-enriched organoids [2]; Dose 10.00 uM, primary screen): −0.076 log 2 fold change
Z.CTG (ISC-enriched organoids [2]; [19]): −0.183
Dose.FC.LYZ.S (ISC-enriched organoids [3]; Dose 0.08 uM): 0.187 log 2 fold change
Dose.FC.LYZ.S (ISC-enriched organoids [3]; Dose 0.40 uM): −0.034 log 2 fold change
Dose.FC.LYZ.S (ISC-enriched organoids [3]; Dose 2.00 uM): 0.042 log 2 fold change
Dose.FC.LYZ.S (ISC-enriched organoids [3]; Dose 10.00 uM): 0.076 log 2 fold change

NC(=O)c1ccc(I)c([N+](=O)[O-])c1 [Iniparib (BSI-201)]
Dose.FC.LYZ.NS (ISC-enriched organoids [1]; Dose 0.08 uM, primary screen): 0.042 log 2 fold change
Z.LYZ.NS (ISC-enriched organoids [1]; [16]): 0.364
Dose.FC.LYZ.NS (ISC-enriched organoids [1]; Dose 0.40 uM, primary screen): 0.000 log 2 fold change
Z.LYZ.NS (ISC-enriched organoids [1]; [17]): 0.003
Dose.FC.LYZ.NS (ISC-enriched organoids [1]; Dose 2.00 uM, primary screen): 0.016 log 2 fold change
Z.LYZ.NS (ISC-enriched organoids [1]; [18]): 0.138
Dose.FC.LYZ.NS (ISC-enriched organoids [1]; Dose 10.00 uM, primary screen): −0.016 log 2 fold change
Z.LYZ.NS (ISC-enriched organoids [1]; [27]): −0.139
SSMD.LYZ.NS (ISC-enriched organoids [1]; [12]): 0.375
SSMD.LYZ.NS (ISC-enriched organoids [1]; [13]): 0.003
SSMD.LYZ.NS (ISC-enriched organoids [1]; [14]): 0.109
SSMD.LYZ.NS (ISC-enriched organoids [1]; [15]): −0.163
Dose.FC.CTG (ISC-enriched organoids [2]; Dose 0.08 uM, primary screen): 0.339 log 2 fold change
Z.CTG (ISC-enriched organoids [2]; [16]): 0.810
Dose.FC.CTG (ISC-enriched organoids [2]; Dose 0.40 uM, primary screen): 0.181 log 2 fold change
Z.CTG (ISC-enriched organoids [2]; [17]): 0.432
Dose.FC.CTG (ISC-enriched organoids [2]; Dose 2.00 uM, primary screen): 0.157 log 2 fold change
Z.CTG (ISC-enriched organoids [2]; [18]): 0.375
Dose.FC.CTG (ISC-enriched organoids [2]; Dose 10.00 uM, primary screen): 0.244 log 2 fold change
Z.CTG (ISC-enriched organoids [2]; [27]): 0.583
SSMD.CTG (ISC-enriched organoids [2]; [12]): 0.883
SSMD.CTG (ISC-enriched organoids [2]; [13]): 0.347
SSMD.CTG (ISC-enriched organoids [2]; [14]): 0.475
SSMD.CTG (ISC-enriched organoids [2]; [15]): 0.721
Dose.FC.LYZ.S (ISC-enriched organoids [3]; Dose 0.08 uM): 0.032 log 2 fold change
Dose.FC.LYZ.S (ISC-enriched organoids [3]; Dose 0.40 uM): 0.035 log 2 fold change
Dose.FC.LYZ.S (ISC-enriched organoids [3]; Dose 2.00 uM): −0.001 log 2 fold change
Dose.FC.LYZ.S (ISC-enriched organoids [3]; Dose 10.00 uM): −0.010 log 2 fold change
Z.LYZ.S (ISC-enriched organoids [3]; [20]): 0.205
Z.LYZ.S (ISC-enriched organoids [3]; [21]): 0.229
Z.LYZ.S (ISC-enriched organoids [3]; [22]): −0.006
Z.LYZ.S (ISC-enriched organoids [3]; [23]): −0.062
SSMD.LYZ.S (ISC-enriched organoids [3]; [20]): 0.148
SSMD.LYZ.S (ISC-enriched organoids [3]; [21]): 0.247
SSMD.LYZ.S (ISC-enriched organoids [3]; [22]): −0.005
SSMD.LYZ.S (ISC-enriched organoids [3]; [23]): −0.070
